The test system of data set [1] is transmembrane domain of SARS CoV E protein. The conditions noted are these: lipid bilayers ref Torres et al., 2007; cited from earlier work.
The test system of data set [2] is viral protein U of human immunodeficiency type 1 virus. The conditions noted are these: cited from earlier work.
Another data set concerns SARS CoV 3a protein. As to conditions: Xenopus oocytes ref Schwarz et al., 2014; cited from earlier work.
The subject of a further data set is HCoV-229E E protein. As to conditions: cited from earlier work.
The next data set relates to MHV E protein. The conditions noted are these: cited from earlier work.
The subject of the next data set is HCoV-229E. The conditions noted are these: cited from earlier work.
Another data set deals with MHV. The conditions noted are these: cited from earlier work.

Entries after “also recorded” stand apart in the source; their conditions may differ. Where two headings read alike, the source gives them in different places.

Turning to `NC12CC3CC(CC(C3)C1)C2` [Amantadine, amantadine, reference compound], the “MTT pRK control” value in the data set on HEK293 cells is on record as “neutral”. Also, in data set [1], the “inhibition of wild-type transmembrane peptides” value is recorded as “inhibited”.
As to (–)epigallocatechin, the “inhibition of viral protein U” value in data set [2] is “not”.
`O=c1c(-c2ccc(O)cc2)coc2cc(O)cc(O)c12` [Genistein, genistein]: the “effect on viability of control cells at increasing concentrations” value (“effect … at increasing concentrations” below) in the data set on HEK293 cells was “proliferative”. Further, the “MTT pRK control” value in the data set on HEK293 cells (human) was 20–50 ↑. Besides, the “inhibition of viral protein U” value in data set [2] is reported as “inhibits; also recorded: able to inhibit”.
With `O=c1c(O)c(-c2ccc(O)cc2)oc2cc(O)cc(O)c12` [Kaempferol, kaempferol], the “effect … at increasing concentrations” value with HEK293 cells is recorded as “proliferative”. For the same compound, the “MTT pRK control” value with HEK293 cells (human) is recorded as 5–50 ↑. The “inhibition of viral protein U” value in data set [2] was “not”. Moreover, in the data set with SARS CoV 3a protein, the “inhibition of 3a ion channel” value is given as “blocks”.
In the case of (–)epicatechin, the “inhibition of viral protein U” value in data set [2] is “not”.
Regarding `O=C1C[C@@H](c2ccc(O)cc2)Oc2cc(O)cc(O)c21` [Naringenin, naringenin], in the data set on HEK293 cells (human), the “MTT pRK control” value is 10–50 ↑.
As to `CC(N)C12CC3CC(CC(C3)C1)C2` (stereo not shown) [Rimantadine, rimantadine, reference compound], in the data set on HEK293 cells, the “MTT pRK control” value is “neutral”.
Turning to `CCCCC[C@H](O)CC(=O)CCc1ccc(O)c(OC)c1` [6-Gingerol, 6-gingerol], the “MTT pRK control” value in the data set with HEK293 cells was “neutral”.
Consider `CCCCCCC[C@H](O)CC(=O)CCc1ccc(O)c(OC)c1` [8-Gingerol, 8-gingerol], for which, in the data set with HEK293 cells (human), the “MTT pRK control” value was 50 ↓.
Regarding `O=c1c(O)c(-c2ccc(O)c(O)c2)oc2cc(O)cc(O)c12` [Quercetin, quercetin], the “effect … at increasing concentrations” value in the data set with HEK293 cells was “proliferative”. Besides, in the data set with HEK293 cells (human), the “MTT pRK control” value was 10–50 ↑. Further, in data set [2], the “inhibition of viral protein U” value is reported as “not”.
For `Oc1ccc(/C=C/c2cc(O)cc(O)c2)cc1` [Resveratrol, resveratrol], the “MTT pRK control” value with HEK293 cells was “neutral”.
For the compound `COc1ccc(-c2cc(=O)c3c(OC)c(OC)c(OC)c(OC)c3o2)cc1OC` [Nobiletin, nobiletin], the “MTT pRK control” value in the data set with HEK293 cells (human) is 5–50 ↑.
On to `O=c1cc(-c2ccc(O)cc2)oc2cc(O)cc(O)c12` [Apigenin, apigenin], for which the “effect … at increasing concentrations” value in the data set on HEK293 cells is reported as “cytotoxic”. Further, in the data set with HEK293 cells (human), the “MTT pRK control” value was 5–10↑ 20–50↓ and the “concentrations that were cytotoxic / induced cell death” value lay within 20 to 50 µM.
On to `O=c1c(O[C@@H]2O[C@@H](CO)[C@H](O)[C@H]2O)c(-c2ccc(O)cc2)oc2cc(O)cc(O)c12` [juglanin], for which the “inhibition of 3a ion channel” value in the data set on SARS CoV 3a protein was “most efficient”.
Regarding `NC(N)=NC(=O)c1nc(Cl)c(N2CCCCCC2)nc1N` [HMA, 5-(N,N-hexamethylene)amiloride], the “inhibition of E protein ion channel conductance” value in the data set on HCoV-229E E protein and with MHV E protein was “inhibits” throughout. Also, in the data set on HEK293 cells, the “effect … at increasing concentrations” value is listed as “cytotoxic”. For the same compound, the “MTT pRK control” value in the data set on HEK293 cells (human) is 10–50 ↓. Moreover, the “inhibition of virus replication” value in the data set on HCoV-229E and in the data set on MHV was “inhibits replication” throughout.
As for `O=C(O[C@@H]1Cc2c(O)cc(O)cc2O[C@@H]1c1cc(O)c(O)c(O)c1)c1cc(O)c(O)c(O)c1` [EGCG, epigallocatechin gallate], the “MTT pRK control” value with HEK293 cells (human) was 5–50 ↑.
